Source: the NIST ThermoML archive (doi:10.1021/je0340755)
± gives the expanded uncertainty stated by the source.

Assay: xn = mol fraction of the nth substance listed
Settings: 101.3 kPa, Liquid; for viscosity: Capillary tube (Ostwald / Ubbelohde) method

OCCCCO [1,4-butanediol] + O
Settings | mass density, 318.15 K [kg/m3] | mass density, 328.15 K [kg/m3] | speed of sound, 318.15 K [m/s] | speed of sound, 328.15 K [m/s] | viscosity, 328.15 K [mPa·s]
x2 = 0.055 | – | 994.94 ± 0.36 | – | 1554.9 ± 6.4 | 18.38 ± 0.11
x2 = 0.1534 | – | 996.05 ± 0.34 | – | 1564.8 ± 6.4 | 16.32 ± 0.097
x2 = 0.2472 | – | 997.2 ± 0.33 | – | 1575.6 ± 6.4 | 14.35 ± 0.09
x2 = 0.3542 | – | 998.64 ± 0.31 | – | 1590.3 ± 6.5 | 12.12 ± 0.083
x2 = 0.4531 | – | 999.93 ± 0.3 | – | 1605 ± 6.5 | 10.08 ± 0.078
x2 = 0.498 | – | 1000.44 ± 0.29 | 1640 ± 6.6 | 1610.8 ± 6.6 | 9.167 ± 0.076
x2 = 0.5578 | 1008.07 ± 0.31 | 1001.01 ± 0.29 | 1648.7 ± 6.7 | 1618.6 ± 6.6 | 7.972 ± 0.073
x2 = 0.6513 | 1008.53 ± 0.3 | 1001.51 ± 0.28 | 1661.1 ± 6.7 | 1631.1 ± 6.6 | 6.178 ± 0.07
x2 = 0.7496 | 1007.83 ± 0.29 | 1000.99 ± 0.27 | 1671.4 ± 6.7 | 1641.4 ± 6.6 | 4.438 ± 0.067
x2 = 0.8475 | 1004.59 ± 0.27 | 998.24 ± 0.27 | 1669 ± 6.7 | 1642.3 ± 6.6 | 2.877 ± 0.065
x2 = 0.9081 | 1000.44 ± 0.26 | 994.62 ± 0.27 | 1645 ± 6.6 | 1626.3 ± 6.6 | 1.965 ± 0.064
x2 = 0.9152 | 999.82 ± 0.26 | 994.08 ± 0.27 | 1640.3 ± 6.6 | 1623.2 ± 6.6 | 1.858 ± 0.064
x2 = 0.9253 | 998.88 ± 0.26 | 993.26 ± 0.28 | 1633.3 ± 6.6 | 1618 ± 6.6 | 1.705 ± 0.064
x2 = 0.9355 | 997.88 ± 0.26 | 992.38 ± 0.28 | 1624.2 ± 6.6 | – | 1.549 ± 0.064
x2 = 0.9543 | 995.86 ± 0.27 | – | 1604.9 ± 6.5 | – | 1.257 ± 0.063
x2 = 0.955 | 995.78 ± 0.27 | – | 1603.8 ± 6.5 | – | 1.246 ± 0.063
x2 = 0.9597 | 995.24 ± 0.27 | – | 1598.2 ± 6.5 | – | 1.172 ± 0.063
x2 = 0.9699 | 994.03 ± 0.27 | – | 1584.8 ± 6.5 | – | 1.009 ± 0.063
x2 = 0.9804 | 992.74 ± 0.28 | – | 1568.2 ± 6.4 | – | 0.837 ± 0.063
x2 = 0.9901 | 991.5 ± 0.28 | – | 1552.7 ± 6.4 | – | 0.674 ± 0.063
x2 = 0.9924 | 991.2 ± 0.28 | – | 1548.3 ± 6.3 | – | 0.635 ± 0.063
x2 = 0.9955 | 990.8 ± 0.28 | – | 1542.8 ± 6.3 | – | 0.581 ± 0.063
